Assay results: the NIST ThermoML archive (doi:10.1007/s10765-013-1553-5)
± gives the expanded uncertainty stated by the source.

Conditions: Liquid, Closed cell (Static) method

F/C=C\C(F)(F)F [(Z)-1,3,3,3-tetrafluoro-1-propene]
Conditions	vapor or sublimation pressure [kPa]
238.13 K	12 ± 2
243.1 K	16 ± 2
248 K	21 ± 2
252.9 K	27 ± 2
257.81 K	34 ± 2
263.02 K	44 ± 2
267.91 K	55 ± 2
272.83 K	68 ± 2
277.94 K	85 ± 2
282.78 K	102 ± 2
283.15 K	103 ± 2
285.15 K	111 ± 2
287.15 K	120 ± 2
287.62 K	123 ± 2
289.15 K	129 ± 2
291.15 K	139 ± 2
292.62 K	148 ± 2
293.15 K	149 ± 2
295.15 K	160 ± 2
297.15 K	172 ± 2
298 K	178 ± 2
299.15 K	184 ± 2
301.15 K	198 ± 2
303.15 K	211 ± 2
303.18 K	212 ± 2
305.15 K	225 ± 2
307.15 K	241 ± 2
308.18 K	249 ± 2
309.15 K	256 ± 2
311.15 K	273 ± 2
313.15 K	291 ± 2
313.17 K	291 ± 2
315.15 K	309 ± 2
317.15 K	329 ± 2
318.14 K	338 ± 2
319.15 K	349 ± 2
321.14 K	370 ± 2
323.14 K	392 ± 2
323.15 K	392 ± 2
325.15 K	415 ± 2
327.15 K	439 ± 2
328.12 K	451 ± 2
329.15 K	465 ± 2
331.15 K	491 ± 2
333.11 K	518 ± 2
333.15 K	519 ± 2
335.15 K	548 ± 2
337.15 K	578 ± 2
338.12 K	591 ± 2
339.15 K	609 ± 3
341.15 K	641 ± 3
343.07 K	672 ± 3
343.15 K	675 ± 3
345.15 K	710 ± 3
347.16 K	746 ± 3
348.16 K	764 ± 3
349.15 K	784 ± 3
351.15 K	823 ± 3
353.12 K	861 ± 3
353.16 K	863 ± 3
358.13 K	969 ± 3
363.14 K	1086 ± 3
368.09 K	1212 ± 3
372.61 K	1336 ± 4
